# What was measured:
# [1] = in vivo; cited from earlier work
# [2] = target: T1, oligomeric amyloid-β / PrP^c interaction (Homo sapiens, UniProt P04156); type: binding
# [3] = target: T1, oligomeric amyloid-β / PrP^c interaction; details: cited from earlier work
# human purified monocytes = experiment: Stimulated IL-6 release from human purified monocytes (ELISA); type: cell-based; details: 24 h, LMW-DS 60-600 µg/ml, heparin 2.0-20 µg/ml, dexamethasone 3.0 µM
# Protocol: Peripheral blood mononuclear cells (PBMC) were isolated from healthy donors through Ficoll-Paque PLUS (GE Healthcare; 11778538) density centrifugation. Monocytes were purified using the EasySep™ human monocyte enrichment kit (StemCell) that purifies monocytes ‘untouched’ to maintain their phenotype.
# Monocytes were cultured in the absence (unstimulated PBS vehicle controls) or presence of stimulation (LPS or peptidoglycan) in the absence (vehicle) or presence of LMW-DS (Tikomed AB, Viken, Sweden, WO 2016/076780; three concentrations; top concentration 600 µg/ml, 200 µg/ml and 60 µg/ml), heparin (2.0, 6.0 or 20 µg/ml; equivalent to 0.406, 1.218 and 4.06 units/ml; Sigma Aldrich) or dexamethasone (3.0 µM; Sigma Aldrich) for 24 hours at 37° C., 5% CO2. Following centrifugation, cell culture supernatants were removed and stored at -20° C. awaiting analysis for IL-6 by ELISA. Levels of IL-6 were quantified in the supernatant by ELISA (R&D systems) according to manufacturer’s instructions.
# [4] = system: mouse model of muscle atrophy; details: after 2 weeks of treatment; cited from earlier work
substance,measurement,setting,value
adalimumab,half-life,[1],around 14 days
certolizumab,half-life,[1],around 14 days
dextran,competition for the protein-protein interaction between oligomeric amyloid-β and PrP^c,[2],failed to compete appreciably
dextran sulphate sodium salt [DSSS],Competable binding (%),[2],101±2%
same,Hill coefficient,[2],1.51±0.06
same,IC50,[2],0.62 ± 0.07 µg/mL
same,effective concentrations to compete with the amyloid-β / PrP^c interaction,[3],low µg/ml range
heparin [reference compound],LPS-stimulated IL-6 release,human purified monocytes; LPS 0.01 ng/ml,concentration dependent statistically significant enhancement
same,peptidoglycan-stimulated IL-6 release,human purified monocytes; peptidoglycan 30 ng/ml,did not reach statistical significance
infliximab,half-life,[1],around 14 days
recombinant HGF: recombinant hepatocyte growth factor,increase in muscle mass,[4],18%

# Reference: patent publication US20230346827A1 (priority 2020, published 2023)
